Tests used:
Conditions in all cases: Compound concentration 10.0 uM
[1] = molecular target: GABA-A receptor; alpha-5/beta-3/gamma-2 (Homo sapiens) (UniProt P18507+P28472+P31644); assay: GABA-alpha5beta3gamma2 Eurofins-Panlabs radioligand binding assay; format: protein-complex assay; set-up: ligand concentration 1 nM
[2] = molecular target: Sodium-dependent serotonin transporter (Homo sapiens) (UniProt P31645); assay: Transporter, Serotonin (5- Hydroxytryptamine) (SERT) Eurofins-Panlabs radioligand binding assay; set-up: ligand concentration 0.15 nM, non-specific ligand with concentration 10 µM Imipramine, incubation time 3 h, incubation temperature 4 °C
[3] = molecular target: Macrophage metalloelastase (Homo sapiens) (UniProt P39900); assay: Peptidase, Matrix Metalloproteinase-12 (MMP-12) Eurofins-Panlabs enzyme assay
[4] = molecular target: Beta-1 adrenergic receptor (Homo sapiens) (UniProt P08588)
[5] = molecular target: Neprilysin (Homo sapiens) (UniProt P08473); assay: Peptidase, Metalloproteinase, Neutral Endopeptidase Eurofins-Panlabs enzyme assay
[6] = molecular target: Cathepsin G (Homo sapiens) (UniProt P08311); assay: Inhibition of Peptidase, CTSG (Cathepsin G) at 10 µM in the Eurofins-Panlabs enzyme assay (Eurofins_assay_112510); set-up: substrate with concentration
[7] = molecular target: Somatostatin receptor type 1 (Homo sapiens) (UniProt P30872); assay: Somatostatin sst1 Eurofins-Panlabs radioligand binding assay; set-up: ligand concentration 0.1 nM
[8] = molecular target: 5-hydroxytryptamine receptor 2B (Homo sapiens) (UniProt P41595)
[9] = molecular target: Receptor-type tyrosine-protein phosphatase C (Homo sapiens) (UniProt P08575); assay: Inhibition of Protein Tyrosine Phosphatase, PTPRC (CD45) at 10 µM in the Eurofins-Panlabs enzyme assay (Eurofins_assay_190010)
[10] = molecular target: Melanocortin receptor 3 (Homo sapiens) (UniProt P41968); assay: Inhibition of Melanocortin MC3 at 10 µM in the Eurofins-Panlabs radioligand binding assay (Eurofins_assay_251300); set-up: ligand concentration 0.035 nM
Rattus norvegicus [11] = species: Rattus norvegicus; assay: Testosterone Eurofins-Panlabs radioligand binding assay; set-up: ligand concentration 1.5 nM
[12] = molecular target: Kappa-type opioid receptor (Homo sapiens) (UniProt P41145)
[13] = molecular target: Glutamate NMDA receptor (Rattus norvegicus) (UniProt P35439+Q00959+Q00960+Q00961+Q62645+Q8VHN2+Q9R1M7)
[14] = molecular target: Histamine H3 receptor (Homo sapiens) (UniProt Q9Y5N1); assay: Histamine H3 Eurofins-Panlabs radioligand binding assay
[15] = molecular target: T1, Muscarinic acetylcholine receptor M5 (Homo sapiens) (UniProt P08912); assay: Inhibition of Muscarinic M5 at 10 µM in the Eurofins-Panlabs radioligand binding assay (Eurofins_assay_253010); set-up: ligand concentration 0.8 nM
T1 sequence (whole entry): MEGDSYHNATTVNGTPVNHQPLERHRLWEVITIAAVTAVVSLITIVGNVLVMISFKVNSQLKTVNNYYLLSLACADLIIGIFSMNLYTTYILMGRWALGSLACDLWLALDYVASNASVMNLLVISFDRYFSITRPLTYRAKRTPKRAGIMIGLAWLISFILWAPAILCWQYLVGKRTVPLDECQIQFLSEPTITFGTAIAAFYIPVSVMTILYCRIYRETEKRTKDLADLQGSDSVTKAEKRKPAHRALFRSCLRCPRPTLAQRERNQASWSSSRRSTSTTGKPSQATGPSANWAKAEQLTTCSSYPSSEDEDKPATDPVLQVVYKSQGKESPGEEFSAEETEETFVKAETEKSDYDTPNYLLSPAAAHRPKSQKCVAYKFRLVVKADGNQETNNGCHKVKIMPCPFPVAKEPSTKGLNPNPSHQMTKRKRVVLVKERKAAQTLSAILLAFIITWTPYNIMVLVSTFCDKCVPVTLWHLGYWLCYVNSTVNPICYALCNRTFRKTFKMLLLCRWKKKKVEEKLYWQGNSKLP

Rattus norvegicus [16] = species: Rattus norvegicus; assay: Adrenergic α2, Non-selective Eurofins-Panlabs radioligand binding assay; format: protein assay
[17] = molecular target: Calcitonin receptor (Homo sapiens) (UniProt P30988); assay: Inhibition of Calcitonin at 10 µM in the Eurofins-Panlabs radioligand binding assay (Eurofins_assay_213610)
[18] = molecular target: 5-hydroxytryptamine receptor 6 (Homo sapiens) (UniProt P50406); assay: Inhibition of Serotonin (5-Hydroxytryptamine) 5-HT6 at 10 µM in the Eurofins-Panlabs radioligand binding assay (Eurofins_assay_272200)
[19] = molecular target: Prostaglandin E2 receptor EP4 subtype (Homo sapiens) (UniProt P35408); assay: Prostanoid EP4 Eurofins-Panlabs radioligand binding assay; set-up: ligand concentration 0.5 nM
[20] = molecular target: T2, D(4) dopamine receptor (Homo sapiens) (UniProt P21917); assay: Dopamine D4.4 Eurofins-Panlabs radioligand binding assay; set-up: ligand concentration 1.2 nM
T2 sequence (whole entry): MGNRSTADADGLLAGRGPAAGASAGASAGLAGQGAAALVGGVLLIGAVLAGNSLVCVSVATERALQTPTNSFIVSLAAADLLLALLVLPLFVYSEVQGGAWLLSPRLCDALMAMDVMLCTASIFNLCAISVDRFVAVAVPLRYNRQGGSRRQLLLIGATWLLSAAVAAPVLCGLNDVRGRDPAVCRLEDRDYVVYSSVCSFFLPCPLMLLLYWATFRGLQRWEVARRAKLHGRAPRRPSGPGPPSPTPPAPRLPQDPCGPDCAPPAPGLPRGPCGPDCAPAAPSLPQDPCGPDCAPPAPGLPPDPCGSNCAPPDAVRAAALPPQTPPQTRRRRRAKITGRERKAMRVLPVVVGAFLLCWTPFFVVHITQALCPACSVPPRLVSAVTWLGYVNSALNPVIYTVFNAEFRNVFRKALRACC

[21] = molecular target: Interstitial collagenase (Homo sapiens) (UniProt P03956); assay: Inhibition of Peptidase, Matrix Metalloproteinase-1 (MMP-1) at 10 µM in the Eurofins-Panlabs enzyme assay (Eurofins_assay_114110)
[22] = molecular target: Adenosine Transporter (Cavia porcellus) (UniProt H0V4R7+H0UUG1+H0V3Z5); assay: Inhibition of Transporter, Adenosine at compound concentration of 10.0 uM in the Eurofins-Panlabs radioligand binding assay (Eurofins_assay_202000); format: protein assay; set-up: ligand concentration 0.5 nM, non-specific ligand with concentration 5 uM Nitrobenzylthioinosine, incubation time 30 min, incubation temperature 25 C
[23] = molecular target: Tyrosine-protein phosphatase non-receptor type 1 (Homo sapiens) (UniProt P18031); assay: Protein Tyrosine Phosphatase, PTPN1 (PTP1B) Eurofins-Panlabs enzyme assay; set-up: substrate with concentration
[24] = molecular target: 5-hydroxytryptamine receptor 1B (Homo sapiens) (UniProt P28222); assay: Inhibition of Serotonin (5-Hydroxytryptamine) 5-HT1B at 10 µM in the Eurofins-Panlabs radioligand binding assay (Eurofins_assay_271200)
[25] = molecular target: Somatostatin receptor type 2 (Homo sapiens) (UniProt P30874); assay: Somatostatin sst2 Eurofins-Panlabs radioligand binding assay; set-up: ligand concentration 0.1 nM
[26] = molecular target: Sodium-dependent dopamine transporter (Homo sapiens) (UniProt Q01959)
[27] = molecular target: Insulin receptor (Homo sapiens) (UniProt P06213); assay: Protein Tyrosine Kinase, Insulin Receptor Eurofins-Panlabs enzyme assay; set-up: substrate with concentration 10 µg/mL […], incubation time 60 min, incubation temperature 25 °C
[28] = molecular target: Delta-type opioid receptor (Homo sapiens) (UniProt P41143)

Measured: inhibition

Histamine H3 receptor (Homo sapiens), sequence (Q9Y5N1 whole entry): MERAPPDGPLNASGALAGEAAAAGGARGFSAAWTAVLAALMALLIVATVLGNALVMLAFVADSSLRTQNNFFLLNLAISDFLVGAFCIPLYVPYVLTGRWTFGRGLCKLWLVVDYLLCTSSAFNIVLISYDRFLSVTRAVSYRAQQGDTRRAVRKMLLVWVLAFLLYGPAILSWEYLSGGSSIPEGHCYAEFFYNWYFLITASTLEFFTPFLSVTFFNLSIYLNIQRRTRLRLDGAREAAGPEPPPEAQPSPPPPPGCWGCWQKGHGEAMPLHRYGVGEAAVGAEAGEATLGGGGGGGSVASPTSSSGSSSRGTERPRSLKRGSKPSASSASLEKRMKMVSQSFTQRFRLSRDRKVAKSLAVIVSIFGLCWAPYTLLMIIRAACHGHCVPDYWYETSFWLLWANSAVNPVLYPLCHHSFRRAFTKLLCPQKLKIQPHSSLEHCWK
5-hydroxytryptamine receptor 6 (Homo sapiens), sequence (P50406 whole entry): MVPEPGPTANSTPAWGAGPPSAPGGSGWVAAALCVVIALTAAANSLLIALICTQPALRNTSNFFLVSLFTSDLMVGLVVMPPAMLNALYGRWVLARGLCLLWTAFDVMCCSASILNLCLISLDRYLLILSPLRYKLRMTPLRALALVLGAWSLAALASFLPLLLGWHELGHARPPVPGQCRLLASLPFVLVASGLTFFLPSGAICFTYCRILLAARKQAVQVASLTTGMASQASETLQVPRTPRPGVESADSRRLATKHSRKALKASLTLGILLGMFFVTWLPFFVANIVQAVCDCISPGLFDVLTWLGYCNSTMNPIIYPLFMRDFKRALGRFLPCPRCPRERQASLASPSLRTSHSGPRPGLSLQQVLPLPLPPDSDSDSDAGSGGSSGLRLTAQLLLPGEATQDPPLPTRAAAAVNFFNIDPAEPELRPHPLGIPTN
Insulin receptor (Homo sapiens), sequence (P06213 28-758 limits assumed): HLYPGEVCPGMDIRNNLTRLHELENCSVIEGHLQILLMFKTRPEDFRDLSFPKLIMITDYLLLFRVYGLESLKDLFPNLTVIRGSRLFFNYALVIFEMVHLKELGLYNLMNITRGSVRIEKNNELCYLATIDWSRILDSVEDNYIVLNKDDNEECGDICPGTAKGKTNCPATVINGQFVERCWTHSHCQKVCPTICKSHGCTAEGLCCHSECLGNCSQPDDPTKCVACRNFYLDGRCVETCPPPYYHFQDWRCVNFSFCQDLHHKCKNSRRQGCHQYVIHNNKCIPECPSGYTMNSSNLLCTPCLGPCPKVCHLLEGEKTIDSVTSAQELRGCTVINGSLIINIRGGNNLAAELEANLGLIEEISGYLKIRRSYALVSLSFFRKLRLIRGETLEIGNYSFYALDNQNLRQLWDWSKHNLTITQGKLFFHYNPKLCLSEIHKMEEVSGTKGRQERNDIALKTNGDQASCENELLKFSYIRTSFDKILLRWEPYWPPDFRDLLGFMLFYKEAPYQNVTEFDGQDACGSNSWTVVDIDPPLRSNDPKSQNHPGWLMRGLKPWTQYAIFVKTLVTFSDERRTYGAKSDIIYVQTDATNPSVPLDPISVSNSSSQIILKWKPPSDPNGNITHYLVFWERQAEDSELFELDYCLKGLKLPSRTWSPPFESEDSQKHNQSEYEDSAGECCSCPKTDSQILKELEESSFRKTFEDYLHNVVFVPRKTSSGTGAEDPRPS
Insulin receptor (Homo sapiens), sequence (P06213 763-1382 limits assumed): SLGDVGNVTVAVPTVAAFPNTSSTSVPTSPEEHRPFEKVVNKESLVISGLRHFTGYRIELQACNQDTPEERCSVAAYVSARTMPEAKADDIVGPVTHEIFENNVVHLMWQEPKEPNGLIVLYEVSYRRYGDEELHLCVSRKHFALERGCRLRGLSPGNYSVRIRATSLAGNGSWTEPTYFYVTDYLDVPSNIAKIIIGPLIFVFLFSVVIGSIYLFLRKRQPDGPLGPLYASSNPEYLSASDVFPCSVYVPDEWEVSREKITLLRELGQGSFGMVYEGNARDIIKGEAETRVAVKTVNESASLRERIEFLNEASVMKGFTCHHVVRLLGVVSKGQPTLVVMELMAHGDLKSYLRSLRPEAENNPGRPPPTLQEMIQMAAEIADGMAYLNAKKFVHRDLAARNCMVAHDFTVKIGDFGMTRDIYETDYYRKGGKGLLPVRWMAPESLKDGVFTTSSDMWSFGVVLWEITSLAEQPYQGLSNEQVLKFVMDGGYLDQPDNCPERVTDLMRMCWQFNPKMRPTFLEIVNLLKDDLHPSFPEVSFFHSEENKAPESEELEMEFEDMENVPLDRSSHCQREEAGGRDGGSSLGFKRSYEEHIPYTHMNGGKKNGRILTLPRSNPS
5-hydroxytryptamine receptor 1B (Homo sapiens), sequence (P28222 whole entry): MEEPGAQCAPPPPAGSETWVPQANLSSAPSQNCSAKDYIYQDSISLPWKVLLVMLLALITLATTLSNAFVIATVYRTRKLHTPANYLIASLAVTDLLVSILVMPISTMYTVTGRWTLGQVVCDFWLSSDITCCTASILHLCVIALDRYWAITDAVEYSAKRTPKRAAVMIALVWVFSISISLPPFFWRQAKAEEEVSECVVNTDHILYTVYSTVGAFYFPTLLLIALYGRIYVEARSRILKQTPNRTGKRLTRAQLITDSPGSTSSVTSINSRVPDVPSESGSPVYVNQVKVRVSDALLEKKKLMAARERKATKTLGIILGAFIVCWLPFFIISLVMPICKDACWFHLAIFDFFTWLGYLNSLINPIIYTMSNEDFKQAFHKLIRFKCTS
Melanocortin receptor 3 (Homo sapiens), sequence (P41968 whole entry): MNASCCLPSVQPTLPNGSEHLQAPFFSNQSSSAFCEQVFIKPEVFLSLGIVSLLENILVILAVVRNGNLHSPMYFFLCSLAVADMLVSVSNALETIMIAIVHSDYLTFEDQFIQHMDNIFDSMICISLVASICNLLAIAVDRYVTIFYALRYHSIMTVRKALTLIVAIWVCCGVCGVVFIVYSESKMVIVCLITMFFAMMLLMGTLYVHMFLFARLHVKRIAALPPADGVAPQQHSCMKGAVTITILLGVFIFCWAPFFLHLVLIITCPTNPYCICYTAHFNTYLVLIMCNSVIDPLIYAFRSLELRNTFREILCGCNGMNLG
Tyrosine-protein phosphatase non-receptor type 1 (Homo sapiens), sequence (P18031 whole entry): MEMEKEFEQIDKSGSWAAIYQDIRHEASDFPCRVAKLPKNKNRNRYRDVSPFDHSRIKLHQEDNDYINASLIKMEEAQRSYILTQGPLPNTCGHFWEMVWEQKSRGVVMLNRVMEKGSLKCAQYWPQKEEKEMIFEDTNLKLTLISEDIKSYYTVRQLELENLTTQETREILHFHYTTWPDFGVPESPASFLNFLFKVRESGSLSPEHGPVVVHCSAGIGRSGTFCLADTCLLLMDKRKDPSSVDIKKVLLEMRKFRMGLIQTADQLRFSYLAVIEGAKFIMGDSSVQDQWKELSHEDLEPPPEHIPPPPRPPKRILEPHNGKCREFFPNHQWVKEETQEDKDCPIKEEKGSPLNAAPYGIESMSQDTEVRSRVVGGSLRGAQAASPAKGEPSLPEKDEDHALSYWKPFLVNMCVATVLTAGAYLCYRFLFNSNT
Interstitial collagenase (Homo sapiens), sequence (P03956 whole entry): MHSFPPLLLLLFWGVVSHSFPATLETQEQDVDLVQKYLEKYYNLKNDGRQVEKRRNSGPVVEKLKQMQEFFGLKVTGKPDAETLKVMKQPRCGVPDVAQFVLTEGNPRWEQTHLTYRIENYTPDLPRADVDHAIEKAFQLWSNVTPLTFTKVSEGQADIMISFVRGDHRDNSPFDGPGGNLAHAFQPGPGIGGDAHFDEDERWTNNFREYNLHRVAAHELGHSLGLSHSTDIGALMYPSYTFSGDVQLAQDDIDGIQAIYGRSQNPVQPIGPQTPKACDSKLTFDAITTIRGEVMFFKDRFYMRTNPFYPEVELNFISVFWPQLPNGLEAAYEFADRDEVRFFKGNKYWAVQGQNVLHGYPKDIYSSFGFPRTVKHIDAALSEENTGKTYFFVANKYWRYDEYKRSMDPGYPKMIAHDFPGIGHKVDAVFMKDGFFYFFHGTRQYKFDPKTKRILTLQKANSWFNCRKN
Macrophage metalloelastase (Homo sapiens), sequence (P39900 106-470 limits assumed): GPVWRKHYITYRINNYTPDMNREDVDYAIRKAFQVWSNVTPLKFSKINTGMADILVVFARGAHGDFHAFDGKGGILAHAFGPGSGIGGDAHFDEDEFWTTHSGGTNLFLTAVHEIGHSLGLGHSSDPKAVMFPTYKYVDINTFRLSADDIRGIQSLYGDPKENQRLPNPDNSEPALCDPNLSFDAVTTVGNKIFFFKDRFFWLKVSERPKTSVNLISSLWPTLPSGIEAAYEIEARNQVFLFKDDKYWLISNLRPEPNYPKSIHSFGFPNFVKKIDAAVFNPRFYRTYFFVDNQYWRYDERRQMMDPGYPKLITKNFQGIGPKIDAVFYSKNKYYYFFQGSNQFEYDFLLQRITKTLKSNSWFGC
Somatostatin receptor type 1 (Homo sapiens), sequence (P30872 whole entry): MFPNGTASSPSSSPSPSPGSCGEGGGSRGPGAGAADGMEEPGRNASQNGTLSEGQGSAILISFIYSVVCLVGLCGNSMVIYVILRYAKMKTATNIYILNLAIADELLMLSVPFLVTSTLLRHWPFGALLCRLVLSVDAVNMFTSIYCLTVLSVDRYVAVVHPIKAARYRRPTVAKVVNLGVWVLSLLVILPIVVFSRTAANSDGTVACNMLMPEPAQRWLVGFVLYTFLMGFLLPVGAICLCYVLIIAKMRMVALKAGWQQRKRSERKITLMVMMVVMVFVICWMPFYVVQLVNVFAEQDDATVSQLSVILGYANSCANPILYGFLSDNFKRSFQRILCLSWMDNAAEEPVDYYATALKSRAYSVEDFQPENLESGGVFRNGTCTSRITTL
Cathepsin G (Homo sapiens), sequence (P08311 whole entry): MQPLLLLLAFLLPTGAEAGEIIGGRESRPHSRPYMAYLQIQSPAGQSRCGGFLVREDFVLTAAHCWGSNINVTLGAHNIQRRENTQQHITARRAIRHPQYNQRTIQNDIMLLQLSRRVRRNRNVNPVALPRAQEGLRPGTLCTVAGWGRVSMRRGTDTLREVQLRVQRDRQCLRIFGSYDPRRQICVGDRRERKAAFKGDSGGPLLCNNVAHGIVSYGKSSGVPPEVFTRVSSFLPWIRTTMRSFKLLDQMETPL

N#CC1(c2ccccn2)CCN(Cc2cc(C(=O)O)c(=O)n3ccccc23)CC1 [MSD-M1PAM]
inactive: [1] 14% | [2] 9% | [3] 12% | [4] 2% | [5] 3% | [6] 10% | [7] -3% | [8] -2% | [9] 13% | [10] 1% | Rattus norvegicus [11] -3% | [12] 2% | [13] 4% | [14] -9% | [15] 11% | Rattus norvegicus [16] -7% | [17] -5% | [18] 11% | [19] -4% | [20] 3% | [21] 15% | [22] 2% | [23] 34% | [24] -2% | [25] 12% | [26] 0% | [27] 1%

N#CC1(c2ccccn2)CCN(Cc2cc(C(=O)N3CCCC3)c(=O)n3ccccc23)CC1
inactive: [28] -0.84%
